# Experiments:
# db/db diabetic mice [1] = experiment: Effect of intraperitoneal administration of osthole on blood glucose level of db/db diabetic mice; assay type: in vivo; conditions: male db/db mice, 50 mg/kg intraperitoneal once daily, five days a week for two weeks, fasted about 16 hours; before treatment about 360 mg/dL; DMSO control 550 mg/dL
# Procedure: Six male db/db diabetic mice (6 to 11 week-old, purchased from National Laboratory Animal Center (Taipei, Taiwan)) were fasted for over 8 hours and venous blood was collected for the measurement of blood glucose level. The mice were divided into two groups (control group and experimental group) on the basis of their blood glucose level and body weight. The mice in the control group were given the solvent DMSO by means of intraperitoneal administration. The mice in the experimental group were given osthole (50 mg/kg body weight) (purchased from Hangzhou Gosun Biotechnologies Co., Zhejiang, China) by means of intraperitoneal administration. The solvent and osthole were administered once daily, five days a week for two weeks. The mice were then fasted for about 16 hours before being sacrificed and blood samples were collected for the measurement of blood glucose levels. […] After two weeks of treatment, the blood glucose level of the mice in the control group was elevated to 550 mg/dL, whereas the blood glucose level of the mice in the experimental group was maintained at about 360 mg/dL.
# db/db diabetic mice [2] = experiment: Effect of oral administration of osthole on blood glucose level of db/db diabetic mice; assay type: in vivo; conditions: male db/db mice, 50 mg/kg by gastric tube once daily, five days a week for three weeks, fasted about 16 hours; before treatment about 200 mg/dL; PBS control 400 mg/dL
# Procedure: Six male db/db diabetic mice (5 to 7 week-old, purchased from National Laboratory Animal Center (Taipei, Taiwan)) were fasted for over 8 hours and venous blood was collected for the measurement of blood glucose level. The mice were divided into two groups (control group and experimental group) on the basis of their blood glucose level and body weight. The mice in the control group were fed with PBS by gastric tube. The mice in the experimental group were fed with osthole (50 mg/kg body weight) by gastric tube. The PBS and osthole were administered once daily, five days a week for three weeks. The mice were then fasted for about 16 hours before being sacrificed and blood samples were collected for the measurement of blood glucose level. […] After three weeks of treatment, the blood glucose level of the mice in the control group was elevated to 400 mg/dL; whereas, the blood glucose level of the mice in the experimental group was maintained at about 210 mg/dL.
compound,measurement,setting,value
"COc1ccc2ccc(=O)oc2c1CC=C(C)C [osthole, 7-methoxy-8-(3-methyl-2-butenyl)-2H-1-benzopyran-2-one]",blood glucose level after two weeks of treatment,db/db diabetic mice [1],about 360 mg/dL
same,blood glucose level after three weeks of treatment,db/db diabetic mice [2],about 210 mg/dL

# From US8198320B2, “Hypoglycemic activity of osthole” (Taipei Medical University, priority 2008, dated 2012)
